How the values were obtained:
Assay type in all cases: cell-based
[1] = target: T1, recombinant GluR6 kainate receptors (Homo sapiens, UniProt Q13002); experiment: Effects of steroids on recombinant GluR6 kainate receptors in oocytes; settings: recombinant GluR6, Vh about −100 mV, FIG. 11
T1 construct: expressed in transfected cells; host or cells: Xenopus laevis oocytes injected with in vitro transcribed GluR6 cRNA
Experimental: All measurements were performed under Vh of about −100 mV.
About 3 days to about 5 days after RNA injection, electrophysiological recordings were carried out using an Axoclamp-2A voltage clamp amplifier (Axon Instruments, Inc.). Experiments were performed in two-electrode voltage clamp mode using two intracellular microelectrodes of about 1 to about 3 mega-ohm resistance filled with a solution of about 3M KCl.
Oocytes were usually clamped at a holding potential of about −60 mV and stepped to about −100 mV during agent application.

[2] = system: kainate responses in oocytes injected with rat brain poly A+ mRNA; experiment: Effect of pregnenolone sulfate on kainate dose-response curve in oocytes injected with rat brain poly A+ mRNA; settings: with and without pregnenolone sulfate, Vh about −100 mV, FIG. 9
Experimental: Poly A^+ mRNA are extracted from brain tissue and neuronal cell culture using a magnetic separation protocol based on the Dynabeads Oligo (dT)25 kit (Dynal, Olso, Norway). Briefly, the protocol utilized magnetic beads that have an attached poly-T moiety which can bind poly A^+ mRNA for separation. Tissue is homogenized, cells are disrupted, and the lysate is added to an aliquot of Dynabeads. Magnetic separation efficiently yields mRNA that is suitable for direct injection into oocytes. Batches of about 20 to about 30 select oocytes are injected with about 50 to about 100 ng of neuronal poly A^+ mRNA. Alternatively, oocytes may be injected with about 30 μl to about 80 μl of RNA prepared from in vitro transcription of cDNA clones. In either case, injection may be performed using a Drummond electronic microinjector. Oocytes are then maintained at about 18° C. to about 19° C. for about 2 to about 4 days to allow protein expression prior to electrophysiological recordings. After incubation, electrophysiological analysis of expressed receptors and ion channels may be performed using a system according to the present invention.
About 3 days to about 5 days after RNA injection, electrophysiological recordings were carried out using an Axoclamp-2A voltage clamp amplifier (Axon Instruments, Inc.). […]

[3] = system: metabotropic glutamate receptors; experiment: Inhibition of kainate responses by stimulation of metabotropic glutamate receptors in oocytes injected with rat brain poly A+ mRNA; settings: about 500 μM tACPD, about 100 μM kainate, repetitive applications, FIG. 14
Experimental: Poly A^+ mRNA are extracted from brain tissue and neuronal cell culture using a magnetic separation protocol based on the Dynabeads Oligo (dT)25 kit (Dynal, Olso, Norway). Briefly, the protocol utilized magnetic beads that have an attached poly-T moiety which can bind poly A^+ mRNA for separation. Tissue is homogenized, cells are disrupted, and the lysate is added to an aliquot of Dynabeads. Magnetic separation efficiently yields mRNA that is suitable for direct injection into oocytes. Batches of about 20 to about 30 select oocytes are injected with about 50 to about 100 ng of neuronal poly A^+ mRNA. Alternatively, oocytes may be injected with about […] of RNA prepared from in vitro transcription of cDNA clones. In either case, injection may be performed using a Drummond electronic microinjector. Oocytes are then maintained at about 18° C. to about 19° C. for about 2 to about 4 days to allow protein expression prior to electrophysiological recordings. After incubation, electrophysiological analysis of expressed receptors and ion channels may be performed using a system according to the present invention.

T1 sequence (Q13002 32-908): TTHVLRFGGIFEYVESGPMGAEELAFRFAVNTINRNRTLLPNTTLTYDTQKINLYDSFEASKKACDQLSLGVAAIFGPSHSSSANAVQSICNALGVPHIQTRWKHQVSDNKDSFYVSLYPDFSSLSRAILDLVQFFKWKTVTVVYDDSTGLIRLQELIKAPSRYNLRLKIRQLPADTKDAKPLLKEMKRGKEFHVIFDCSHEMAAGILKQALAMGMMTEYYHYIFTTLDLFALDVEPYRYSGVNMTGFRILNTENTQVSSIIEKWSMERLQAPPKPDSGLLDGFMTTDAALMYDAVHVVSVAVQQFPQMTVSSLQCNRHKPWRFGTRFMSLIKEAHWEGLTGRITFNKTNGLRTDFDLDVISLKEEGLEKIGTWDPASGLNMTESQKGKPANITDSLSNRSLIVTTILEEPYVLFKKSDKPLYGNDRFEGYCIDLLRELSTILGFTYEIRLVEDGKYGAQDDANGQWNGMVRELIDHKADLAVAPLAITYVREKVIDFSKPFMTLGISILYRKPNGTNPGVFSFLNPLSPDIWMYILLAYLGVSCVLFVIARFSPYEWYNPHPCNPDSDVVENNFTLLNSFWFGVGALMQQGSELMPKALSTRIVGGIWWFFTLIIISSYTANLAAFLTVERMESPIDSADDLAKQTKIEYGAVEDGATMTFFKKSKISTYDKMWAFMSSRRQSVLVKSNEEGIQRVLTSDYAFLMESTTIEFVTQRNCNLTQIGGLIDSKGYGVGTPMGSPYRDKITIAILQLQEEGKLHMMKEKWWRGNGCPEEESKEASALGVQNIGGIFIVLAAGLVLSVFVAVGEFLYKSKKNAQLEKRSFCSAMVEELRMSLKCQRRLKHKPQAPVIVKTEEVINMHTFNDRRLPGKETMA

Molecule	Effect on maximal response to kainate [1]	Effect on Emax of kainate dose-response curve [2]	Effect on responses to kainate [3]
pregnenolone sulfate	decrease the maximal response to kainate	decrease in Emax	–
N[C@]1(C(=O)O)CC[C@H](C(=O)O)C1 [tACPD]	–	–	can inhibit responses to kainate
